# Experimental data: patent US20230121313A1 (priority 2019, published 2023)
# Test system: patients with treatment-resistant depression (TRD)
# Assay: Adverse events, phase 2 dose-response study in TRD
# Assay type: in vivo, human
# Conditions: for Dissociation, number of participants / Dissociative disorder, % of participants / Dissociative disorder, number of participants / Dizziness, % of participants / Dizziness, number of participants / Dysgeusia, % of participants / Dysgeusia, number of participants / Feeling abnormal, % of participants / Feeling abnormal, number of participants / Headache, % of participants / Headache, number of participants / Hypersomnia, % of participants / Hypersomnia, number of participants / Hypertension, number of participants / Hypoesthesia oral, % of participants / Hypoesthesia oral, number of participants / Insomnia, number of participants / Nasal discomfort, number of participants / Nausea, % of participants / Nausea, number of participants / Oropharyngeal pain, number of participants / Polyuria, number of participants / Sedation, % of participants / Sedation, number of participants / Throat irritation, % of participants / Throat irritation, number of participants / Total with events, % of participants / Total with events, number of participants / Tunnel vision, number of participants / Vertigo, % of participants / Vertigo, number of participants / Vision blurred, number of participants / Dissociation, % of participants / Hypertension, % of participants / Insomnia, % of participants / Nasal discomfort, % of participants / Oropharyngeal pain, % of participants / Polyuria, % of participants / Tunnel vision, % of participants / Vision blurred, % of participants: double-blind
# Procedure: Adverse events were monitored throughout the study. Other safety assessments (i.e., laboratory tests, vital signs, physical examination) were performed at pre-specified time points. Vital signs, the Clinician Administered Dissociative States Scale (CADSS; Bremner, “Measurement of dissociative states with the clinician-administered dissociative states scale (CADSS)”, J. Traumatic Stress, 1998, 11(1):125-136), and the 4-item positive symptom subscale from the Brief Psychiatric Rating Scale (BPRS; Overall, “The Brief Psychiatric Rating Scale. Psychological Reports”, 1962, 10:799-812) were assessed pre-dose, at 40 minutes, and 2 hours post-dose.
# Safety data were analyzed in Period 1, Period 2, double-blind, and open-label data sets, for all subjects receiving at least 1 dose of study medication.
smiles,measurement,setting,value
"CN[C@]1(c2ccccc2Cl)CCCCC1=O [esketamine, (S)-2-(2-chlorophenyl)-2-(methylamino)cyclohexanone]","Dissociation, number of participants","esketamine 28 mg, N = 19",0
same,"Dissociative disorder, % of participants","esketamine 28 mg, N = 19",(11) %
same,"Dissociative disorder, number of participants","esketamine 28 mg, N = 19",2
same,"Dizziness, % of participants","esketamine 28 mg, N = 19",(21) %
same,"Dizziness, number of participants","esketamine 28 mg, N = 19",4
same,"Dysgeusia, % of participants","esketamine 28 mg, N = 19",(11) %
same,"Dysgeusia, number of participants","esketamine 28 mg, N = 19",2
same,"Feeling abnormal, % of participants","esketamine 28 mg, N = 19",(11) %
same,"Feeling abnormal, number of participants","esketamine 28 mg, N = 19",2
same,"Headache, % of participants","esketamine 28 mg, N = 19",(32) %
same,"Headache, number of participants","esketamine 28 mg, N = 19",6
same,"Hypersomnia, % of participants","esketamine 28 mg, N = 19",(11) %
same,"Hypersomnia, number of participants","esketamine 28 mg, N = 19",2
same,"Hypertension, number of participants","esketamine 28 mg, N = 19",0
same,"Hypoesthesia oral, % of participants","esketamine 28 mg, N = 19",(5) %
same,"Hypoesthesia oral, number of participants","esketamine 28 mg, N = 19",1
same,"Insomnia, number of participants","esketamine 28 mg, N = 19",0
same,"Nasal discomfort, number of participants","esketamine 28 mg, N = 19",0
same,"Nausea, % of participants","esketamine 28 mg, N = 19",(11) %
same,"Nausea, number of participants","esketamine 28 mg, N = 19",2
same,"Oropharyngeal pain, number of participants","esketamine 28 mg, N = 19",0
same,"Polyuria, number of participants","esketamine 28 mg, N = 19",0
same,"Sedation, % of participants","esketamine 28 mg, N = 19",(5) %
same,"Sedation, number of participants","esketamine 28 mg, N = 19",1
same,"Throat irritation, % of participants","esketamine 28 mg, N = 19",(5) %
same,"Throat irritation, number of participants","esketamine 28 mg, N = 19",1
same,"Total with events, % of participants","esketamine 28 mg, N = 19",(58) %
same,"Total with events, number of participants","esketamine 28 mg, N = 19",11
same,"Tunnel vision, number of participants","esketamine 28 mg, N = 19",0
same,"Vertigo, % of participants","esketamine 28 mg, N = 19",(11) %
same,"Vertigo, number of participants","esketamine 28 mg, N = 19",2
same,"Vision blurred, number of participants","esketamine 28 mg, N = 19",0
same,"Dissociation, % of participants","esketamine 56 mg, N = 20",(35) %
same,"Dissociation, number of participants","esketamine 56 mg, N = 20",7
same,"Dissociative disorder, % of participants","esketamine 56 mg, N = 20",(5) %
same,"Dissociative disorder, number of participants","esketamine 56 mg, N = 20",1
same,"Dizziness, % of participants","esketamine 56 mg, N = 20",(40) %
same,"Dizziness, number of participants","esketamine 56 mg, N = 20",8
same,"Dysgeusia, % of participants","esketamine 56 mg, N = 20",(15) %
same,"Dysgeusia, number of participants","esketamine 56 mg, N = 20",3
same,"Feeling abnormal, % of participants","esketamine 56 mg, N = 20",(5) %
same,"Feeling abnormal, number of participants","esketamine 56 mg, N = 20",1
same,"Headache, % of participants","esketamine 56 mg, N = 20",(15) %
same,"Headache, number of participants","esketamine 56 mg, N = 20",3
same,"Hypersomnia, number of participants","esketamine 56 mg, N = 20",0
same,"Hypertension, % of participants","esketamine 56 mg, N = 20",(10) %
same,"Hypertension, number of participants","esketamine 56 mg, N = 20",2
same,"Hypoesthesia oral, % of participants","esketamine 56 mg, N = 20",(20) %
same,"Hypoesthesia oral, number of participants","esketamine 56 mg, N = 20",4
same,"Insomnia, % of participants","esketamine 56 mg, N = 20",(10) %
same,"Insomnia, number of participants","esketamine 56 mg, N = 20",2
same,"Nasal discomfort, % of participants","esketamine 56 mg, N = 20",(10) %
same,"Nasal discomfort, number of participants","esketamine 56 mg, N = 20",2
same,"Nausea, % of participants","esketamine 56 mg, N = 20",(20) %
same,"Nausea, number of participants","esketamine 56 mg, N = 20",4
same,"Oropharyngeal pain, % of participants","esketamine 56 mg, N = 20",(5) %
same,"Oropharyngeal pain, number of participants","esketamine 56 mg, N = 20",1
same,"Polyuria, % of participants","esketamine 56 mg, N = 20",(10) %
same,"Polyuria, number of participants","esketamine 56 mg, N = 20",2
same,"Sedation, % of participants","esketamine 56 mg, N = 20",(10) %
same,"Sedation, number of participants","esketamine 56 mg, N = 20",2
same,"Throat irritation, number of participants","esketamine 56 mg, N = 20",0
same,"Total with events, % of participants","esketamine 56 mg, N = 20",(80) %
same,"Total with events, number of participants","esketamine 56 mg, N = 20",16
same,"Tunnel vision, number of participants","esketamine 56 mg, N = 20",0
same,"Vertigo, % of participants","esketamine 56 mg, N = 20",(5) %
same,"Vertigo, number of participants","esketamine 56 mg, N = 20",1
same,"Vision blurred, number of participants","esketamine 56 mg, N = 20",0
same,"Dissociation, % of participants","esketamine 84 mg, N = 17",(24) %
same,"Dissociation, number of participants","esketamine 84 mg, N = 17",4
same,"Dissociative disorder, % of participants","esketamine 84 mg, N = 17",(24) %
same,"Dissociative disorder, number of participants","esketamine 84 mg, N = 17",4
same,"Dizziness, % of participants","esketamine 84 mg, N = 17",(47) %
same,"Dizziness, number of participants","esketamine 84 mg, N = 17",8
same,"Dysgeusia, % of participants","esketamine 84 mg, N = 17",(29) %
same,"Dysgeusia, number of participants","esketamine 84 mg, N = 17",5
same,"Feeling abnormal, % of participants","esketamine 84 mg, N = 17",(6) %
same,"Feeling abnormal, number of participants","esketamine 84 mg, N = 17",1
same,"Headache, % of participants","esketamine 84 mg, N = 17",(18) %
same,"Headache, number of participants","esketamine 84 mg, N = 17",3
same,"Hypersomnia, number of participants","esketamine 84 mg, N = 17",0
same,"Hypertension, % of participants","esketamine 84 mg, N = 17",(6) %
same,"Hypertension, number of participants","esketamine 84 mg, N = 17",1
same,"Hypoesthesia oral, % of participants","esketamine 84 mg, N = 17",(12) %
same,"Hypoesthesia oral, number of participants","esketamine 84 mg, N = 17",2
same,"Insomnia, number of participants","esketamine 84 mg, N = 17",0
same,"Nasal discomfort, % of participants","esketamine 84 mg, N = 17",(6) %
same,"Nasal discomfort, number of participants","esketamine 84 mg, N = 17",1
same,"Nausea, % of participants","esketamine 84 mg, N = 17",(24) %
same,"Nausea, number of participants","esketamine 84 mg, N = 17",4
same,"Oropharyngeal pain, % of participants","esketamine 84 mg, N = 17",(12) %
same,"Oropharyngeal pain, number of participants","esketamine 84 mg, N = 17",2
same,"Polyuria, number of participants","esketamine 84 mg, N = 17",0
same,"Sedation, % of participants","esketamine 84 mg, N = 17",(6) %
same,"Sedation, number of participants","esketamine 84 mg, N = 17",1
same,"Throat irritation, % of participants","esketamine 84 mg, N = 17",(12) %
same,"Throat irritation, number of participants","esketamine 84 mg, N = 17",2
same,"Total with events, % of participants","esketamine 84 mg, N = 17",(88) %
same,"Total with events, number of participants","esketamine 84 mg, N = 17",15
same,"Tunnel vision, % of participants","esketamine 84 mg, N = 17",(12) %
same,"Tunnel vision, number of participants","esketamine 84 mg, N = 17",2
same,"Vertigo, % of participants","esketamine 84 mg, N = 17",(6) %
same,"Vertigo, number of participants","esketamine 84 mg, N = 17",1
same,"Vision blurred, % of participants","esketamine 84 mg, N = 17",(12) %
same,"Vision blurred, number of participants","esketamine 84 mg, N = 17",2
same,"Dissociation, % of participants","esketamine Total, N = 56",(20) %
same,"Dissociation, number of participants","esketamine Total, N = 56",11
same,"Dissociative disorder, % of participants","esketamine Total, N = 56",(13) %
same,"Dissociative disorder, number of participants","esketamine Total, N = 56",7
same,"Dizziness, % of participants","esketamine Total, N = 56",(36) %
same,"Dizziness, number of participants","esketamine Total, N = 56",20
same,"Dysgeusia, % of participants","esketamine Total, N = 56",(18) %
same,"Dysgeusia, number of participants","esketamine Total, N = 56",10
same,"Feeling abnormal, % of participants","esketamine Total, N = 56",(7) %
same,"Feeling abnormal, number of participants","esketamine Total, N = 56",4
same,"Headache, % of participants","esketamine Total, N = 56",(21) %
same,"Headache, number of participants","esketamine Total, N = 56",12
same,"Hypersomnia, % of participants","esketamine Total, N = 56",(4) %
same,"Hypersomnia, number of participants","esketamine Total, N = 56",2
same,"Hypertension, % of participants","esketamine Total, N = 56",(5) %
same,"Hypertension, number of participants","esketamine Total, N = 56",3
same,"Hypoesthesia oral, % of participants","esketamine Total, N = 56",(13) %
same,"Hypoesthesia oral, number of participants","esketamine Total, N = 56",7
same,"Insomnia, % of participants","esketamine Total, N = 56",(4) %
same,"Insomnia, number of participants","esketamine Total, N = 56",2
same,"Nasal discomfort, % of participants","esketamine Total, N = 56",(5) %
same,"Nasal discomfort, number of participants","esketamine Total, N = 56",3
same,"Nausea, % of participants","esketamine Total, N = 56",(18) %
same,"Nausea, number of participants","esketamine Total, N = 56",10
same,"Oropharyngeal pain, % of participants","esketamine Total, N = 56",(5) %
same,"Oropharyngeal pain, number of participants","esketamine Total, N = 56",3
same,"Polyuria, % of participants","esketamine Total, N = 56",(4) %
same,"Polyuria, number of participants","esketamine Total, N = 56",2
same,"Sedation, % of participants","esketamine Total, N = 56",(7) %
same,"Sedation, number of participants","esketamine Total, N = 56",4
same,"Throat irritation, % of participants","esketamine Total, N = 56",(5) %
same,"Throat irritation, number of participants","esketamine Total, N = 56",3
same,"Total with events, % of participants","esketamine Total, N = 56",(75) %
same,"Total with events, number of participants","esketamine Total, N = 56",42
same,"Tunnel vision, % of participants","esketamine Total, N = 56",(4) %
same,"Tunnel vision, number of participants","esketamine Total, N = 56",2
same,"Vertigo, % of participants","esketamine Total, N = 56",(7) %
same,"Vertigo, number of participants","esketamine Total, N = 56",4
same,"Vision blurred, % of participants","esketamine Total, N = 56",(4) %
same,"Vision blurred, number of participants","esketamine Total, N = 56",2
same,Participants with adverse events leading to discontinuation of study drug,"phase 2, double-blind phase",5%
same,"Adverse event dizziness, % of participants","phase 2, open-label phase",38.6%
same,"Adverse event dysgeusia, % of participants","phase 2, open-label phase",22.8%
same,"Adverse event headache, % of participants","phase 2, open-label phase",14.0%
same,"Adverse event nausea, % of participants","phase 2, open-label phase",15.8%
same,"Adverse event sedation, % of participants","phase 2, open-label phase",10.5%
same,Participants reporting transient dissociative symptoms,"phase 2, open-label phase",24.6%
same,Participants with adverse events leading to discontinuation of study drug,"phase 2, open-label phase",2%
